Assay results taken from US20230074545A1, “TREATMENT OF CANCER WITH CDK12/13 INHIBITORS” (Kinnate Biopharma Inc., priority 2019, published 2023).

Experiments:
Assay in all cases: Radiometric kinase panel
Type in all cases: biochemical
CDK1/CycA2 = target: T1, CDK1/CycA2 (Homo sapiens, UniProt P06493)
T1 construct: either as full-length or enzymatically active fragments; purchased ProQinase GmbH (Reaction Biology)
How it was run: (§1)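 Activity was measured radiometrically from [gamma-33P]-ATP incorporation into substrate. The kinases were recombinant human GST- or His-tagged proteins, full-length or active fragments, expressed in Sf9 or E. coli. Compound in 10% DMSO was added before the enzyme/substrate mix, which started the reaction.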

PLK1 = target: T2, PLK1 (Homo sapiens, UniProt P53350)
T2 construct: either as full-length or enzymatically active fragments; purchased ProQinase GmbH (Reaction Biology)
How it was run: as §1

JAK1 = target: T3, JAK1 (Homo sapiens, UniProt P23458)
T3 construct: purchased ProQinase GmbH (Reaction Biology)
How it was run: as §1

LRRK2 = target: T4, LRRK2 (Homo sapiens, UniProt Q5S007)
T4 construct: either as full-length or enzymatically active fragments; purchased ProQinase GmbH (Reaction Biology); host or cells: Sf9 insect cells or E. coli
How it was run: as §1

MARK1 = target: T5, MARK1 (Homo sapiens, UniProt Q9P0L2)
T5 construct: purchased ProQinase GmbH (Reaction Biology)
How it was run: as §1

CAMK2B = target: T6, CAMK2B (Homo sapiens, UniProt Q13554)
T6 construct: either as full-length or enzymatically active fragments; purchased ProQinase GmbH (Reaction Biology)
How it was run: as §1

EPHA6 = target: T7, EPHA6 (Homo sapiens, UniProt Q9UF33)
T7 construct: either as full-length or enzymatically active fragments; purchased ProQinase GmbH (Reaction Biology)
How it was run: as §1

VEGFR3 = target: T8, VEGFR3 (Homo sapiens, UniProt P35916)
T8 construct: either as full-length or enzymatically active fragments; purchased ProQinase GmbH (Reaction Biology)
T8 sequence (P35916 25-1363): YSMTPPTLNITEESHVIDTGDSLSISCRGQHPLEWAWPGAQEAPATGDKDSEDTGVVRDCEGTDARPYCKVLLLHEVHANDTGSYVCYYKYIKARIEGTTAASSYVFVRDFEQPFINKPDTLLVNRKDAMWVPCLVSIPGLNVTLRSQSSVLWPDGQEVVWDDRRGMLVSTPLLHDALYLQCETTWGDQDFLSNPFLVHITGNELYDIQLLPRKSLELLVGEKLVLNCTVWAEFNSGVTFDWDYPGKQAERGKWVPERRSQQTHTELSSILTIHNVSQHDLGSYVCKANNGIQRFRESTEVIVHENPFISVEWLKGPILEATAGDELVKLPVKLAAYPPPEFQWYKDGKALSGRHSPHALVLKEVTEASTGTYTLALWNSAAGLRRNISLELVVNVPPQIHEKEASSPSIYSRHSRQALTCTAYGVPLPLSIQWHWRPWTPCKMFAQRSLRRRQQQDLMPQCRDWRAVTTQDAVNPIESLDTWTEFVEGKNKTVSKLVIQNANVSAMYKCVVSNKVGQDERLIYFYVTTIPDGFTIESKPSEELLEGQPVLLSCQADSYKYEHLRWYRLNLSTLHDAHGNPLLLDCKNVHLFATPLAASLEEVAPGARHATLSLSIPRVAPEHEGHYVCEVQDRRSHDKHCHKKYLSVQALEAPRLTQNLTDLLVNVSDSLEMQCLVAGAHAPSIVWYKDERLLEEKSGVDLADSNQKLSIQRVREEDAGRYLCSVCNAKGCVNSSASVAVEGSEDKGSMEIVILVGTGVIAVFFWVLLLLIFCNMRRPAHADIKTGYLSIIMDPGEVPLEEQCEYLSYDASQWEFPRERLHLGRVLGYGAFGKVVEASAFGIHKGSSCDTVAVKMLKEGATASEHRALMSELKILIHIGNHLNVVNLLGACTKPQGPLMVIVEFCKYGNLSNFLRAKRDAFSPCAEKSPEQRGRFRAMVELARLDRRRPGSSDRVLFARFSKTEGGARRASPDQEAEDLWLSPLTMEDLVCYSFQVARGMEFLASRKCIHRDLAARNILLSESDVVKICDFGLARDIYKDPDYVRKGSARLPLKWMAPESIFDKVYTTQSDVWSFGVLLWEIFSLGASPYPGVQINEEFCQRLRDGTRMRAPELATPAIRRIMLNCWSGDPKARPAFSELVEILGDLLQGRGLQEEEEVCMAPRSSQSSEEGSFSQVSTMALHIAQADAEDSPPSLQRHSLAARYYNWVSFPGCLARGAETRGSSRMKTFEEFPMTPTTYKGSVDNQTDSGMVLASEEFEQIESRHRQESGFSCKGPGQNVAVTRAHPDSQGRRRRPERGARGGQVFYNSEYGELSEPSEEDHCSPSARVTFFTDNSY
How it was run: as §1

TSSK1 = target: T9, TSSK1 (Homo sapiens, UniProt Q9BXA7)
T9 construct: either as full-length or enzymatically active fragments; purchased ProQinase GmbH (Reaction Biology)
T9 sequence (Q9BXA7 whole entry, the tested form may be a part): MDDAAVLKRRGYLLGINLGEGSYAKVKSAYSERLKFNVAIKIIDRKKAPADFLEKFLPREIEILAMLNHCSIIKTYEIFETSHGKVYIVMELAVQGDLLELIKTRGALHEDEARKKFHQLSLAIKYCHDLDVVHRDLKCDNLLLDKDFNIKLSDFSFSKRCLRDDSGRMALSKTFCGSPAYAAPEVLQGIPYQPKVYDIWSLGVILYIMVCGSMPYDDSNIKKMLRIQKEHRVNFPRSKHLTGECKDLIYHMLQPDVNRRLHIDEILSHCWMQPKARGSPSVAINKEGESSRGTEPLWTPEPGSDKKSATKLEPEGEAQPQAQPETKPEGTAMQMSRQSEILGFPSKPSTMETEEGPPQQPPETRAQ
How it was run: as §1

RPS6KA6 = target: T10, RPS6KA6 (Homo sapiens, UniProt Q9UK32)
T10 construct: purchased ProQinase GmbH (Reaction Biology)
How it was run: as §1

JNK2 = target: T11, JNK2 (Homo sapiens, UniProt P45984)
T11 construct: either as full-length or enzymatically active fragments; purchased ProQinase GmbH (Reaction Biology)
T11 sequence (P45984 whole entry, the tested form may be a part): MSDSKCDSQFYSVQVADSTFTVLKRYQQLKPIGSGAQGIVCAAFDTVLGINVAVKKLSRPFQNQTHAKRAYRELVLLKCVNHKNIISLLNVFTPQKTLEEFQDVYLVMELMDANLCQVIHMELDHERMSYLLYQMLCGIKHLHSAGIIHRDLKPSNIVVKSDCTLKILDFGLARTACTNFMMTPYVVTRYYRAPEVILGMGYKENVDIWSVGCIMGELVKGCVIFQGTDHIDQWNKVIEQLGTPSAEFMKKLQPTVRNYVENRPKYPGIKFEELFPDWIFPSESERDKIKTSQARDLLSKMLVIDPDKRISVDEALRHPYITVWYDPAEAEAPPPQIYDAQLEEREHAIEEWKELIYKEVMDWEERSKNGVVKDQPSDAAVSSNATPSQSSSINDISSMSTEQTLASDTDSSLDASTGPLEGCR
How it was run: as §1

MELK = target: T12, MELK (Homo sapiens, UniProt Q14680)
T12 construct: purchased ProQinase GmbH (Reaction Biology); host or cells: Sf9 insect cells or E. coli (not specified per kinase)
T12 sequence (Q14680 whole entry): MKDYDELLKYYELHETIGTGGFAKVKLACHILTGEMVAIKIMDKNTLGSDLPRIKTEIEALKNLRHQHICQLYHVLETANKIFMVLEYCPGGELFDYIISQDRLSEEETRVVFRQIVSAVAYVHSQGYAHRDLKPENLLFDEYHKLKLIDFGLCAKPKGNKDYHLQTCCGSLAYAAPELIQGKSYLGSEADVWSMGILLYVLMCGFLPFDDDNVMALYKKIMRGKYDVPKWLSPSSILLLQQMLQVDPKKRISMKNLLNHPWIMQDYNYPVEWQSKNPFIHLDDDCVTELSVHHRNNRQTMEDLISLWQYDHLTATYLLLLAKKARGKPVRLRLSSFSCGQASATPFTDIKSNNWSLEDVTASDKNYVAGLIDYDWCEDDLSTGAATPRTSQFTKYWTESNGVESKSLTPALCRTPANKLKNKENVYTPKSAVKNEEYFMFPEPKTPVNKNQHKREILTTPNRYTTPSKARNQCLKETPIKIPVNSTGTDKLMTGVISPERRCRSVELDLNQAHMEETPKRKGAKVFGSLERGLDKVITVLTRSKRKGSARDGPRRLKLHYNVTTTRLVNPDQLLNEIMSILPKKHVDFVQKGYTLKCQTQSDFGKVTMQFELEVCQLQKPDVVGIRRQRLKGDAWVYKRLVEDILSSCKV
How it was run: as §1

HIPK1 = target: T13, HIPK1 (Homo sapiens, UniProt Q86Z02)
T13 construct: either as full-length or enzymatically active fragments; purchased ProQinase GmbH (Reaction Biology); host or cells: Sf9 insect cells or E. coli (not specified per kinase)
How it was run: as §1

CK1gamma2 = target: T14, CK1gamma2 (Homo sapiens, UniProt P78368)
T14 construct: purchased ProQinase GmbH (Reaction Biology)
How it was run: as §1

NEK2 = target: T15, NEK2 (Homo sapiens, UniProt P51955)
T15 construct: either as full-length or enzymatically active fragments; purchased ProQinase GmbH (Reaction Biology)
How it was run: as §1

RPS6KA4 = target: T16, RPS6KA4 (Homo sapiens, UniProt O75676)
T16 construct: either as full-length or enzymatically active fragments; purchased ProQinase GmbH (Reaction Biology)
How it was run: as §1

CDK17/p35NCK = target: T17, CDK17/p35NCK (Homo sapiens, UniProt Q00537)
T17 construct: either as full-length or enzymatically active fragments; purchased ProQinase GmbH (Reaction Biology); host or cells: Sf9 insect cells or E. coli
T17 sequence (Q00537 whole entry, the tested form may be a part): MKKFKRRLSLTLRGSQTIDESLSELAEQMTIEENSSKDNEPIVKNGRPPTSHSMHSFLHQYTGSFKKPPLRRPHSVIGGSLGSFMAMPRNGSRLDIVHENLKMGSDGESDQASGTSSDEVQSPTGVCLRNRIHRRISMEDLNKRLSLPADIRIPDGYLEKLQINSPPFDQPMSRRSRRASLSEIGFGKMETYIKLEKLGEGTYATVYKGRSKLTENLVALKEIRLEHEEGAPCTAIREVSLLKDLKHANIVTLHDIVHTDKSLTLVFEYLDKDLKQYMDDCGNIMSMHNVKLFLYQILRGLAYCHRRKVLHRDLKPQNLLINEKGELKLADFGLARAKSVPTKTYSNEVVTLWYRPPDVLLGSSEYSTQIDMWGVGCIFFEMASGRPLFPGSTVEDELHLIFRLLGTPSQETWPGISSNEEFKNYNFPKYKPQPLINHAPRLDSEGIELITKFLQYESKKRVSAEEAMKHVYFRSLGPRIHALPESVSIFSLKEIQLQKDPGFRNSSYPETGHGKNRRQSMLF
T17 sequence (Q15078 whole entry partner, the tested form may be a part): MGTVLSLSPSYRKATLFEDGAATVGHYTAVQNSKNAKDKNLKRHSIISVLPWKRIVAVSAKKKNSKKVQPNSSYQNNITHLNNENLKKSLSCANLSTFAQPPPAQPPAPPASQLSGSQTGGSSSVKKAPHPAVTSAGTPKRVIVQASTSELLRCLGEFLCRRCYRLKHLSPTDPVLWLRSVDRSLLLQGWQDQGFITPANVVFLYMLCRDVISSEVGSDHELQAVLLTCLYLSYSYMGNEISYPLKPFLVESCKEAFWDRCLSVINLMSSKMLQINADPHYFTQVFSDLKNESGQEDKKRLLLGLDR
How it was run: as §1

HIPK3 = target: T18, HIPK3 (Homo sapiens, UniProt Q9H422)
T18 construct: either as full-length or enzymatically active fragments; purchased ProQinase GmbH (Reaction Biology)
How it was run: as §1

NIK = target: T19, NIK (Homo sapiens, UniProt Q99558)
T19 construct: purchased ProQinase GmbH (Reaction Biology)
T19 sequence (Q99558 whole entry): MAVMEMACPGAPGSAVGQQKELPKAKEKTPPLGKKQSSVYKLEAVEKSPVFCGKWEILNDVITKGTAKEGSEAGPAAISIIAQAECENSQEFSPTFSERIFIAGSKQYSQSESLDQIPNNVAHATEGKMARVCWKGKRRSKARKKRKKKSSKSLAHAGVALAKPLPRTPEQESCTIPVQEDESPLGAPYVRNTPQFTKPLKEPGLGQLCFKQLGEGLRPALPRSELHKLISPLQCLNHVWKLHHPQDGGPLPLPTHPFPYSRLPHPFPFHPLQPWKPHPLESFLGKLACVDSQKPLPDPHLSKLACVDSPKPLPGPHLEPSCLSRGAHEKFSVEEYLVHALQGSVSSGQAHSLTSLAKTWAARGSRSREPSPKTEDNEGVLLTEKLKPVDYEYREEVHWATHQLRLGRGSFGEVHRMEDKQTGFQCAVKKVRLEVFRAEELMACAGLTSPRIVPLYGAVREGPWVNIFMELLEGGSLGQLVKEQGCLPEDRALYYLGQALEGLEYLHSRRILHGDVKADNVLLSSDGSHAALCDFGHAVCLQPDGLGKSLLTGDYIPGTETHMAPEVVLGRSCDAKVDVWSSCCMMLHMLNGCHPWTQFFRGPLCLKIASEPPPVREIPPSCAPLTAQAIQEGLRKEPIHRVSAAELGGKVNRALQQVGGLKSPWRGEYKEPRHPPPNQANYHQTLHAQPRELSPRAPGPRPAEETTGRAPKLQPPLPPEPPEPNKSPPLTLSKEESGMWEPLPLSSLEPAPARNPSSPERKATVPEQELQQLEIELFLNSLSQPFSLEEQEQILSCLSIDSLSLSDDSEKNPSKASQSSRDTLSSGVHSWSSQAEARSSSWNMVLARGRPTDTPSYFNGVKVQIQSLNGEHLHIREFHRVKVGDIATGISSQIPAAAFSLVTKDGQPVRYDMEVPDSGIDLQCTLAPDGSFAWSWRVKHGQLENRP
How it was run: as §1

IKKalpha = target: T20, IKKalpha (Homo sapiens, UniProt O15111)
T20 construct: either as full-length or enzymatically active fragments; purchased ProQinase GmbH (Reaction Biology)
How it was run: as §1

FAK = target: T21, FAK (Homo sapiens, UniProt Q05397)
T21 construct: either as full-length or enzymatically active fragments; purchased ProQinase GmbH (Reaction Biology); host or cells: Sf9 insect cells or E. coli
How it was run: as §1

MET = target: T22, MET (Homo sapiens, UniProt P08581)
T22 construct: purchased ProQinase GmbH (Reaction Biology); host or cells: Sf9 insect cells or E. coli (not specified per kinase)
How it was run: as §1

STK17A = target: T23, STK17A (Homo sapiens, UniProt Q9UEE5)
T23 construct: either as full-length or enzymatically active fragments; purchased ProQinase GmbH (Reaction Biology)
T23 sequence (Q9UEE5 whole entry, the tested form may be a part): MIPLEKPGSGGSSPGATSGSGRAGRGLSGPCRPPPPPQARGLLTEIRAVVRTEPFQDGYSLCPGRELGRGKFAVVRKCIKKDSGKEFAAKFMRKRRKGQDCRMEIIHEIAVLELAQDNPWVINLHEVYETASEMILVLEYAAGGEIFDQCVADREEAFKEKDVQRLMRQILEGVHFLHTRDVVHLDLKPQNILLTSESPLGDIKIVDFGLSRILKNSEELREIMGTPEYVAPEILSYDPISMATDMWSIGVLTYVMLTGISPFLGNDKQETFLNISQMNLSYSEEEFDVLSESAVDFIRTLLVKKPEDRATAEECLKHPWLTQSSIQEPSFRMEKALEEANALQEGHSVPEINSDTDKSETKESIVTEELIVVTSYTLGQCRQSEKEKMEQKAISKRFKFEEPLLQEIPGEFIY
How it was run: as §1

EPHB1 = target: T24, EPHB1 (Homo sapiens, UniProt P54762)
T24 construct: either as full-length or enzymatically active fragments; purchased ProQinase GmbH (Reaction Biology)
How it was run: as §1

MAP4K2 = target: T25, MAP4K2 (Homo sapiens, UniProt Q12851)
T25 construct: purchased ProQinase GmbH (Reaction Biology)
How it was run: as §1

FRK = target: T26, FRK (Homo sapiens, UniProt P42685)
T26 construct: either as full-length or enzymatically active fragments; purchased ProQinase GmbH (Reaction Biology)
How it was run: as §1

TRKC = target: T27, TRKC (Homo sapiens, UniProt Q16288)
T27 construct: either as full-length or enzymatically active fragments; purchased ProQinase GmbH (Reaction Biology)
How it was run: as §1

PKCzeta = target: T28, PKCzeta (Homo sapiens, UniProt Q05513)
T28 construct: either as full-length or enzymatically active fragments; purchased ProQinase GmbH (Reaction Biology)
How it was run: as §1

AKT3 = target: T29, AKT3 (Homo sapiens, UniProt Q9Y243)
T29 construct: purchased ProQinase GmbH (Reaction Biology)
How it was run: as §1

EPHA2 = target: T30, EPHA2 (Homo sapiens, UniProt P29317)
T30 construct: either as full-length or enzymatically active fragments; purchased ProQinase GmbH (Reaction Biology)
How it was run: as §1

PRK1 = target: T31, PRK1 (Homo sapiens, UniProt Q16512)
T31 construct: purchased ProQinase GmbH (Reaction Biology)
How it was run: as §1

With `C=CC(=O)Nc1ccc(C(=O)N2CC[C@@H](Nc3ncc(C#N)cn3)C2)cc1` [Compound 4, (R)-N-(4-(3-((5-cyanopyrimidin-2-yl)amino)pyrrolidine-1-carbonyl)phenyl)acrylamide] the inhibition at 1 µM (CDK1/CycA2) was 17%, the inhibition at 1 µM (PLK1) was 7% and the inhibition at 1 µM (JAK1) was -1%. For the same molecule, the inhibition at 1 µM (LRRK2) was -14%, the inhibition at 1 µM (MARK1) was 0% and the inhibition at 1 µM (CAMK2B) was -12%. It also gave an inhibition at 1 µM (EPHA6) of 5%, an inhibition at 1 µM (VEGFR3) of -5% and an inhibition at 1 µM (TSSK1) of -10%. For the same molecule, the inhibition at 1 µM (RPS6KA6) was -3%, the inhibition at 1 µM (JNK2) was 6% and the inhibition at 1 µM (MELK) was 1%. It also gave an inhibition at 1 µM (HIPK1) of 8%, an inhibition at 1 µM (CK1gamma2) of -1% and an inhibition at 1 µM (NEK2) of -8%. For the same molecule, the inhibition at 1 µM (RPS6KA4) was 5%, the inhibition at 1 µM (CDK17/p35NCK) was 12% and the inhibition at 1 µM (HIPK3) was -7%. The inhibition at 1 µM (NIK) was -2%, the inhibition at 1 µM (IKKalpha) was -8% and the inhibition at 1 µM (FAK) was -15%. The inhibition at 1 µM (MET) was 0%, the inhibition at 1 µM (STK17A) was -4% and the inhibition at 1 µM (EPHB1) was -3%. For the same molecule, the inhibition at 1 µM (MAP4K2) was -1%, the inhibition at 1 µM (FRK) was -6% and the inhibition at 1 µM (TRKC) was -11%. It also gave an inhibition at 1 µM (PKCzeta) of -3%, an inhibition at 1 µM (AKT3) of -2% and an inhibition at 1 µM (EPHA2) of -5%. It also gave an inhibition at 1 µM (PRK1) of -1%.
